Measurements from patent publication US20240374692A1, “A NOVEL ACYLATED INSULIN ANALOG” (SUNSHINE LAKE PHARMA CO., LTD., priority 2021, published 2024).
Like-named read-outs stand apart in the source and are kept apart here.

Legend:
insulin receptor B = target: T1, insulin receptor B (Homo sapiens, UniProt P06213); test: Insulin receptor B autophosphorylation in transfected cells (Cisbio Phospho-IR beta Tyr1150/1151 kit); assay type: cell-based; settings: for Relative HI activity: relative to human insulin; for Relative 0% HSA activity: 1.5% HSA relative to 0% HSA
T1 construct: expressed in transfected cells
Procedure: The phosphorylation level of insulin receptor B was detected by Cisbio's Phospho-IR beta (Tyr1150/1151) kit method to evaluate the biological activity of insulin. The cells were seeded into a 96-well plate overnight, and after the serum in the medium was removed, 40 μl of serum-free medium was added to culture for about 4 h. Then a dilution series of insulin derivatives were prepared with blank solution (0.6% casein, 0.06 mg/mL EDTA, 1×DPBS) and incubated with cells in the 96-well plate for 5 min in a CO2 incubator (37° C., 5% CO2). The liquid in the 96-well plate was poured off, 100 µL of a mixture of lysis buffer (2% Triton X-100, 150 mM NaCl, 50 mM HEPES, pH=7) and inhibitor (Blocking Reagent in the kit) was added to lyse the cells, then the plate was shaken at 350 rpm for 30 min. Relative activity (in percent (%)) was assessed by measuring insulin receptor phosphorylation levels in the supernatant after cell lysis and fitting a curve to the data using nonlinear regression in Graphpad Prism 5 software. Related assays were also used, in which the blank solution also contained 1.5% HSA to simulate physiological conditions. Changes in the phosphorylation levels of the insulin-activated insulin receptors of the invention were detected as an indirect reflection of the albumin binding activity.

normal C57BL/6 mice = test: Hypoglycemic effect, single subcutaneous administration to normal C57BL/6 mice; assay type: in vivo; set-up: blood glucose: unit not given here; settings: for blood glucose compared with the control group: 1 h after single S.C. administration; for blood glucose: Mean ± SEM, n = 6
Procedure: SPF grade C57BL/6 mice were reared in a suitable rearing box in a barrier environment, with a rearing temperature of 20-26° C., a humidity of 40-70%, a time between day and night of 12 h/12 h, and the mice had free access to standard food and autoclaved sterilization water. After a 3-day quarantine period and a 2-day acclimation period, random blood glucose was measured and mice were weighed. Mice were divided into 6 groups according to random blood glucose and body weight.
Single subcutaneous administration (S.C.) was used to administer the corresponding vehicle or drug. The control group was administered the vehicle PBS without fasting during the whole process, and the animals were allowed to eat and drink freely. Random blood glucose values of C57 mice were measured before administration and at 0.25, 0.5, 1, 2, 4, 6, 8, 10, 24, 48, 54, 72 and 96 hours after administration.
(§1) All raw data were entered into Excel files and expressed as Mean±SEM. Statistical analysis of data was performed using Graphpad Prism 7.0 software, one-way or two-way ANOVA comparison method, and P<0.05 was used as the criterion for significant differences.

[1] = test system: STZ-induced type I diabetes mellitus (T1DM) C57BL/6 mice; test: Hypoglycemic effect, repeated administration (three times) to STZ-induced T1DM C57BL/6 mice (Example 6); assay type: in vivo; set-up: key to random blood glucose: blood glucose in mmol/L; settings: for random blood glucose: Mean ± SEM, n = 7
Procedure: SPF grade C57BL/6 mice were reared in a suitable rearing box in a barrier environment, with a rearing temperature of 20-26° C., a humidity of 40-70%, a time between day and night of 12 h/12 h, and the mice had free access to standard food and autoclaved sterilization water. After the 3-day quarantine period and the 2-day acclimation period, the mice were fasted for 12 h, and the mice were injected intraperitoneally with streptozotocin solution (STZ, 13 mg/mL, in citrate buffer) at 130 mg/kg. 3 Days and 7 days after administration of streptozotocin, random blood glucose and fasting blood glucose were detected, and the random blood glucose value above 25 mmol/L and fasting blood glucose value above 11.1 mmol/L were selected as T1DM model mice for follow-up experiments. On the day before administration, random blood glucose was monitored and mice were weighed. Mice were divided into 6 groups according to random blood glucose and body weight.
Subcutaneous administration (S.C.) was used to administer the corresponding vehicle or drug, once every 4-5 days, for a total of 3 administrations. During the experiment, the animals were allowed to eat and drink water freely. The random blood glucose before the first administration, and 0.25, 0.5, 1, 2, 4, 6, 8, 10, 24, 48, 72, and 96 h after administration were assessed, as well as the random blood glucose before the second and third administration, and 0.5, 1, 2, 6, 24, 48, 72, 96 and 120 h after administration.
as §1

[2] = rat, in vivo, sc, 10 nmol/kg
[3] = dog, in vivo, iv, 10 nmol/kg
Procedure: Two beagle dogs, one in each group, a double-cycle crossover design was used, with a washout period of 1 week, and a single dose of 10 nmol/kg of Icodec or Insulin-a10 was administered to the lateral small saphenous vein of the hind limb in each cycle, the blood was collected and plasma was centrifuged at 0.083, 0.25, 0.5, 1, 2, 6, 8, 24, 30, 48, 72 and 96 h after administration, the concentration of Icodec or Insulin-a10 in the plasma was detected.

[4] = single S.C., Degludec 200 nmol/Kg, others 1400 nmol/Kg
[5] = 500 nmol/Kg S.C. three times, Day 0 (1st)
[6] = 500 nmol/Kg S.C. three times, Day 1
[7] = 500 nmol/Kg S.C. three times, Day 4 (2nd)
[8] = 500 nmol/Kg S.C. three times, Day 5
[9] = 500 nmol/Kg S.C. three times, Day 9 (3rd)
[10] = 500 nmol/Kg S.C. three times, Day 10
[11] = 500 nmol/Kg S.C. three times, Day 14

T1 sequence (P06213 28-758 limits assumed): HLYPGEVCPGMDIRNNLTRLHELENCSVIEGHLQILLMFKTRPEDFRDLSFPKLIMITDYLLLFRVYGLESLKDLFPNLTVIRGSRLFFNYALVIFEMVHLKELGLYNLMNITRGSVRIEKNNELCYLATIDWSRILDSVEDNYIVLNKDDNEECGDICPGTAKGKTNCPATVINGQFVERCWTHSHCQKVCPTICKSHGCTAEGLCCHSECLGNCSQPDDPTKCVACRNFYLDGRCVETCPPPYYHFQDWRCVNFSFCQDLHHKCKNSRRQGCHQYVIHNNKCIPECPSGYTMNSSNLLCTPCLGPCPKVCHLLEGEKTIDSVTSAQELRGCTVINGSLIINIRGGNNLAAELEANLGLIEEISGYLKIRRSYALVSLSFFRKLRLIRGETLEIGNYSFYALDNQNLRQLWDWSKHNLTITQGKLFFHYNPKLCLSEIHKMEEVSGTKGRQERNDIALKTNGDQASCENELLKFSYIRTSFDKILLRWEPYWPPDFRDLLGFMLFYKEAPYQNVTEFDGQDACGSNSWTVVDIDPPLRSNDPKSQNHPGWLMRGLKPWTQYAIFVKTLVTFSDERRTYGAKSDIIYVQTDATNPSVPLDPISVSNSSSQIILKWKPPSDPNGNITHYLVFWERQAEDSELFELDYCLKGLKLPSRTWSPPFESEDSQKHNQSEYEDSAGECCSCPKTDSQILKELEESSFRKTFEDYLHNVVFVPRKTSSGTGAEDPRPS
T1 sequence (P06213 763-1382 partner limits assumed): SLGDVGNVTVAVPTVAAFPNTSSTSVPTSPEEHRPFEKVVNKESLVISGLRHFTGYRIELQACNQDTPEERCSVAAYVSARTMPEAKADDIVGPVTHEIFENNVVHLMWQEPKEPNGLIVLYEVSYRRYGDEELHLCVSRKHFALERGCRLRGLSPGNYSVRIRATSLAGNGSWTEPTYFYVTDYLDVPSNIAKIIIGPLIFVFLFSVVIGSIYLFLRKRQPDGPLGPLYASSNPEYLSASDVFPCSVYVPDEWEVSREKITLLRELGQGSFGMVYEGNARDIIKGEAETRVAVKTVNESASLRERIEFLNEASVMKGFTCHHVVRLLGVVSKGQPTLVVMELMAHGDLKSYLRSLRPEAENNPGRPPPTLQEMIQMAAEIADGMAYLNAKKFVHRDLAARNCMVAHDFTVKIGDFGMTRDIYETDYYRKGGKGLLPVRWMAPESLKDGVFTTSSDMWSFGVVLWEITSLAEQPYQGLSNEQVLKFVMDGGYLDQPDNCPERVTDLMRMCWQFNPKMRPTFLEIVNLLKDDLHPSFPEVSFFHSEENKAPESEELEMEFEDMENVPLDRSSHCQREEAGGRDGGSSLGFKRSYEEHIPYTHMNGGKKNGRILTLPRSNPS

Row | Substance | EC50 (insulin receptor B; 0% HSA) | Relative HI activity (insulin receptor B; 0% HSA) | EC50 (insulin receptor B; 1.5% HSA) | Relative 0% HSA activity (insulin receptor B) | Relative HI activity (insulin receptor B; 1.5% HSA) | blood glucose compared with the control group (normal C57BL/6 mice) | effective blood glucose control time (normal C57BL/6 mice; [4]) | time after administration at which blood glucose reached the lowest level (normal C57BL/6 mice; [4]) | random blood glucose [1, 5] | random blood glucose [1, 6] | random blood glucose [1, 7] | random blood glucose [1, 8] | random blood glucose [1, 9] | random blood glucose [1, 10] | random blood glucose [1, 11] | AUClast [2] | MRTINF_obs [2] | T1/2 [2] | AUClast [3] | T1/2 [3] | further results
1 | A14E, B16H, B25H, B29K (N^ε-eicosandioyl-gGlu-2xOEG), DesB30 human insulin analog [Icodec, reference compound] | 77.2 nM | 1.60% | 1480 nM | 5.23% | 0.17% | decreased significantly | 96 h | 48 h | 32.5 ± 1.6 | 20.3 ± 6.3 | 30.6 ± 2.6 | 19.5 ± 5.8 | 27.0 ± 7.1 | 15.9 ± 6.0 | 33.0 ± 0.9 | 6560 ng·h/mL | 30.5 h | 16.7 h | 35700 ± 120 ng·h/mL | 35.7 ± 6.7 h | random blood glucose ([1]; 250 nmol/Kg S.C. three times, Day 0 (1st)): 32.5 ± 2.2; random blood glucose ([1]; 250 nmol/Kg S.C. three times, Day 1): 25.7 ± 4.2; random blood glucose ([1]; 250 nmol/Kg S.C. three times, Day 4 (2nd)): 31.3 ± 2.6; random blood glucose ([1]; 250 nmol/Kg S.C. three times, Day 5): 25.1 ± 3.2; random blood glucose ([1]; 250 nmol/Kg S.C. three times, Day 9 (3rd)): 31.8 ± 2.2; random blood glucose ([1]; 250 nmol/Kg S.C. three times, Day 10): 17.2 ± 6.8; random blood glucose ([1]; 250 nmol/Kg S.C. three times, Day 14): 30.6 ± 4.6; random blood glucose ([1]; 1000 nmol/Kg S.C. three times, Day 0 (1st)): 30.8 ± 2.9; random blood glucose ([1]; 1000 nmol/Kg S.C. three times, Day 1): 20.4 ± 4.6; random blood glucose ([1]; 1000 nmol/Kg S.C. three times, Day 4 (2nd)): 31.6 ± 2.1; random blood glucose ([1]; 1000 nmol/Kg S.C. three times, Day 5): 12.8 ± 5.4; random blood glucose ([1]; 1000 nmol/Kg S.C. three times, Day 9 (3rd)): 29.7 ± 3.7; random blood glucose ([1]; 1000 nmol/Kg S.C. three times, Day 10): 10.1 ± 6.4; random blood glucose ([1]; 1000 nmol/Kg S.C. three times, Day 14): 27.7 ± 4.6
2 | A14E, B16H, B25H, B29K(N(ε)-COOH(CH2)18CO-L-Lys-CO(CH2)2CO—(OEG)2), desB30 human insulin analog [Insulin-a10] | 85.5 nM | 1.44% | 1310 nM | 6.52% | 0.20% | decreased significantly | more than 96 h | 72 h | 32.0 ± 1.7 | 19.7 ± 6.6 | 27.6 ± 4.4 | 15.2 ± 8.9 | 26.6 ± 5.7 | 11.7 ± 9.4 | 26.1 ± 6.2 | 9350 ng·h/mL | 29.2 h | 17.2 h | 28300 ± 3500 ng·h/mL | 46 ± 10.8 h | blood glucose (normal C57BL/6 mice; 0 h (before administration), single S.C., Degludec 200 nmol/Kg, others 1400 nmol/Kg): 9.1 ± 1.5; blood glucose (normal C57BL/6 mice; 0.25 h after single S.C., Degludec 200 nmol/Kg, others 1400 nmol/Kg): 7.9 ± 1.5; blood glucose (normal C57BL/6 mice; 1 h after single S.C., Degludec 200 nmol/Kg, others 1400 nmol/Kg): 4.4 ± 0.6; blood glucose (normal C57BL/6 mice; 2 h after single S.C., Degludec 200 nmol/Kg, others 1400 nmol/Kg): 4.4 ± 1.3; blood glucose (normal C57BL/6 mice; 4 h after single S.C., Degludec 200 nmol/Kg, others 1400 nmol/Kg): 3.7 ± 1.0; blood glucose (normal C57BL/6 mice; 6 h after single S.C., Degludec 200 nmol/Kg, others 1400 nmol/Kg): 3.5 ± 1.1; blood glucose (normal C57BL/6 mice; 8 h after single S.C., Degludec 200 nmol/Kg, others 1400 nmol/Kg): 3.1 ± 1.0; blood glucose (normal C57BL/6 mice; 10 h after single S.C., Degludec 200 nmol/Kg, others 1400 nmol/Kg): 2.8 ± 0.7; blood glucose (normal C57BL/6 mice; 24 h after single S.C., Degludec 200 nmol/Kg, others 1400 nmol/Kg): 2.1 ± 0.7; blood glucose (normal C57BL/6 mice; 48 h after single S.C., Degludec 200 nmol/Kg, others 1400 nmol/Kg): 1.7 ± 0.6; blood glucose (normal C57BL/6 mice; 72 h after single S.C., Degludec 200 nmol/Kg, others 1400 nmol/Kg): 1.8 ± 0.1; blood glucose (normal C57BL/6 mice; 96 h after single S.C., Degludec 200 nmol/Kg, others 1400 nmol/Kg): 4.0 ± 4.0; effect on blood glucose control compared with Icodec (normal C57BL/6 mice; single S.C. 1400 nmol/Kg): consistent with the trend of Icodec and can be maintained for a longer time; time after administration at which blood glucose returned to normal (normal C57BL/6 mice; [4]): > 96 h; effective glucose control time ([1]; 500 nmol/Kg S.C.): 120 h; time after administration at which blood glucose returned to normal level ([1]; 500 nmol/Kg S.C., after the first administration): 96 h; time after administration at which blood glucose returned to normal level ([1]; 500 nmol/Kg S.C., after the second and third administrations): 120 h; time after each administration at which blood glucose reached the lowest level ([1]; Icodec 250, 500 and 1000 nmol/kg, Insulin-a3 and Insulin-a10 500 nmol/Kg): 24 h; glucose control effect compared with the Icodec-1000 nmol/kg group ([1]; test drug 500 nmol/Kg S.C.): equivalent
